Measured values reported in ChEMBL document CHEMBL1773045, “Conjugate (MTC-220) of muramyl dipeptide analogue and paclitaxel prevents both tumor growth and metastasis in mice” (J Med Chem, 2011).
Activity calls are given as the source filed them. The rule behind the calls is not given here.

Assays:
RXF 393 = experiment: Growth inhibition of human RXF393 cells after 48 hrs by sulforhodamine B assay; format: functional; settings: RXF 393, 48 h
Mus musculus [1] = experiment: Toxicity in mouse LLC cells xenografted C57BL/6 mouse assessed as decrease in body weight at 10 mg/kg, ip qd for 15 days; format: organism-based; design: dose 10 mg/kg, route intraperitoneal; settings: in vivo, 360 h
4T1 [2] = experiment: Antitumor activity against mouse 4T1 cells xenografted in […] mouse assessed as tumor growth inhibition at 5 mg/kg, ip qd for 28 days relative to control; format: functional; settings: 4T1, ip, 672 h, route intraperitoneal, read-out: GI
Mus musculus [3] = experiment: Antimetastatic activity against mouse 4T1 cells xenografted in BALB/c mouse assessed as reduction of myeloid derived suppressor cells accumulation in spleen at 5 mg/kg, ip qd for 23 days by flow cytometry analysis relative to control; format: functional; design: scale not given: the % may be the effect or the level left; settings: route intraperitoneal
Mus musculus [4] = experiment: Antimetastatic activity against mouse 4T1 cells xenografted in BALB/c mouse assessed as reduction of TGFbeta mRNA expression in tumor at 5 mg/kg, ip qd for 23 days by RT-PCR analysis; format: functional, organism-based; design: dose 5 mg/kg
NCI-H23 = experiment: Growth inhibition of human NCI-H23 cells after 48 hrs by sulforhodamine B assay; format: functional; settings: NCI-H23, 48 h
MDA-MB-468 = experiment: Growth inhibition of human MDA-MB-468 cells after 48 hrs by sulforhodamine B assay; format: functional; settings: MDA-MB-468, 48 h
UACC-257 = experiment: Growth inhibition of human UACC257 cells after 48 hrs by sulforhodamine B assay; format: functional; settings: UACC-257, 48 h
A2780 [5] = experiment: Antitumor activity against human A2780 cells xenografted in nu/nu BALB/c mouse assessed as tumor growth inhibition at 30 mg/kg, ip qd for 12 days measured on day 25 relative to control; format: functional; settings: route intraperitoneal, read-out: GI
MDA-MB-231 [6] = experiment: Antitumor activity against human MDA-MB-231 cells xenografted in nu/nu BALB/c mouse assessed as tumor growth inhibition at 15 mg/kg, ip qd for 24 days measured on day 25 relative to control; format: functional; settings: MDA-MB-231, ip, route intraperitoneal, read-out: GI
NCI-H1975 = experiment: Antitumor activity against human NCI-H1975 cells xenografted in nu/nu BALB/c mouse assessed as tumor growth inhibition at 30 mg/kg, ip qd for 12 days measured on day 25 relative to control; format: functional; settings: route intraperitoneal, read-out: GI
MDA-MB-231 [7] = experiment: Antitumor activity against human MDA-MB-231 cells xenografted in nu/nu BALB/c mouse assessed as tumor growth inhibition at 30 mg/kg, ip qd for 12 days measured on day 25 relative to control; format: functional; settings: MDA-MB-231, ip, route intraperitoneal, read-out: GI
KM12 = experiment: Growth inhibition of human KM12 cells after 48 hrs by sulforhodamine B assay; format: functional; settings: KM12, 48 h
SNB-75 = experiment: Growth inhibition of human SNB75 cells after 48 hrs by sulforhodamine B assay; format: functional; settings: SNB-75, 48 h
SR = experiment: Growth inhibition of human SR cells after 48 hrs by sulforhodamine B assay; format: functional
HOP-92 = experiment: Growth inhibition of human HOP92 cells after 48 hrs by sulforhodamine B assay; format: functional; settings: HOP-92, 48 h
[8] = Antitumor activity against human ES2 cells xenografted in nu/nu BALB/c mouse assessed as tumor growth inhibition at 30 mg/kg, ip qd for 12 days measured on day 21 relative to control; format: functional; settings: ES-2, ip, route intraperitoneal, read-out: GI
CCRF-CEM = experiment: Growth inhibition of human CCRF-CEM cells after 48 hrs by sulforhodamine B assay; format: functional
NCI-H460 [9] = experiment: Antitumor activity against human H460 cells xenografted in nu/nu BALB/c mouse assessed as tumor growth inhibition at 5 mg/kg, ip qd for 24 days measured on day 25 relative to control; format: functional; settings: route intraperitoneal, read-out: GI
MDA-MB-231 [10] = experiment: Growth inhibition of human MDA-MB-231 cells after 48 hrs by sulforhodamine B assay; format: functional; settings: MDA-MB-231, 48 h
4T1 [11] = experiment: Antimetastatic activity against mouse 4T1 cells xenografted in […] mouse assessed as inhibition of lung metastasis at 2.5 to 10 mg/kg, ip qd for 28 days; format: functional, organism-based
HCT-8 = experiment: Cytotoxicity against human HCT8 cells after 72 hrs by MTT assay; format: functional, cell-based
EKVX = experiment: Growth inhibition of human EKVX cells after 48 hrs by sulforhodamine B assay; format: functional
UACC-62 = experiment: Growth inhibition of human UACC62 cells after 48 hrs by sulforhodamine B assay; format: functional; settings: UACC-62, 48 h
ACHN = experiment: Growth inhibition of human ACHN cells after 48 hrs by sulforhodamine B assay; format: functional
HCT-116 = experiment: Growth inhibition of human HCT116 cells after 48 hrs by sulforhodamine B assay; format: functional; settings: HCT-116, 48 h
A498 = experiment: Growth inhibition of human A498 cells after 48 hrs by sulforhodamine B assay; format: functional; settings: A498, 48 h
A2780 [12] = experiment: Cytotoxicity against human A2780 cells after 72 hrs by MTT assay; format: functional, cell-based
Mus musculus [13] = experiment: Toxicity in ICR mouse assessed as mortality at 112.5 mg/kg, iv; format: organism-based; design: dose 112.5 mg/kg, route intravenous; settings: in vivo
PC-3M = experiment: Cytotoxicity against human PC3M cells after 72 hrs by MTT assay; format: functional, cell-based
DU-145 = experiment: Growth inhibition of human DU145 cells after 48 hrs by sulforhodamine B assay; format: functional; settings: DU-145, 48 h
[14] = test system: Lewis lung carcinoma cell line; experiment: Antimetastatic activity against mouse LLC cells xenografted in C57BL/6 mouse assessed as inhibition of lung metastasis at 10 mg/kg, ip qd for 15 days relative to control; format: functional; settings: 360 h, route intraperitoneal, read-out: GI
Mus musculus [15] = experiment: Antimetastatic activity against mouse 4T1 cells xenografted in BALB/c mouse assessed as reduction of myeloid derived suppressor cells accumulation in bone marrow at 5 mg/kg, ip qd for 23 days by flow cytometry analysis relative to control; format: functional; design: scale not given: the % may be the effect or the level left; settings: route intraperitoneal
MCF7 = experiment: Antitumor activity against human MCF7 cells xenografted in nu/nu BALB/c mouse assessed as tumor growth inhibition at 30 mg/kg, ip qd for 12 days measured on day 36 relative to control; format: functional; settings: route intraperitoneal, read-out: GI
786-0 = experiment: Growth inhibition of human 786-0 cells after 48 hrs by sulforhodamine B assay; format: functional; settings: 786-0, 48 h
NCI-H460 [16] = experiment: Antitumor activity against human H460 cells xenografted in nu/nu BALB/c mouse assessed as tumor growth inhibition at 10 mg/kg, ip qd for 24 days measured on day 25 relative to control; format: functional; settings: route intraperitoneal, read-out: GI
NCI/ADR-RES = experiment: Growth inhibition of human NCI/ADR-RES cells after 48 hrs by sulforhodamine B assay; format: functional
Mus musculus [17] = experiment: Toxicity in human cancer cells xenografted in nu/nu BALB/c mouse assessed as side effects at 5 to 30 mg/kg, ip qd for 24 days; format: organism-based, Cancer cell lines; design: dose 5-30 mg/kg, route intraperitoneal; settings: in vivo, 576 h
Mus musculus [18] = experiment: Antimetastatic activity against mouse 4T1 cells xenografted in BALB/c mouse assessed as reduction of TNFalpha mRNA expression in tumor at 5 mg/kg, ip qd for 23 days by RT-PCR analysis; format: functional, organism-based; design: dose 5 mg/kg
HCT-15 = experiment: Growth inhibition of human HCT15 cells after 48 hrs by sulforhodamine B assay; format: functional; settings: HCT-15, 48 h

## CC(=O)O[C@H]1C(=O)[C@@]2(C)[C@H]([C@H](OC(=O)c3ccccc3)[C@]3(O)C[C@H](OC(=O)[C@H](OC(=O)CCC(=O)NCCCC[C@H](NC(=O)CC[C@H](NC(=O)[C@H](C)NC(=O)/C=C/c4ccc(Cl)cc4)C(N)=O)C(N)=O)[C@H](NC(=O)c4ccccc4)c4ccccc4)C(C)=C1C3(C)C)[C@]1(OC(C)=O)CO[C@@H]1C[C@@H]2O
RXF 393
  GI50: < 10 nM
Mus musculus [1]
  Activity: Non-toxic
4T1 [2]
  inhibition in vivo at 5 mg/kg: 33.5%
Mus musculus [3]
  Activity: 22%
Mus musculus [4]
  Activity: Active
NCI-H23
  GI50: < 10 nM
MDA-MB-468
  GI50: < 10 nM
UACC-257
  GI50: < 10 nM
A2780 [5]
  inhibition in vivo at 30 mg/kg: 45.2%
MDA-MB-231 [6]
  inhibition in vivo at 15 mg/kg: 57.4%
NCI-H1975
  inhibition in vivo at 30 mg/kg: 93.1%
MDA-MB-231 [7]
  inhibition in vivo at 30 mg/kg: 87%
KM12
  GI50: < 10 nM
SNB-75
  GI50: < 10 nM
SR
  GI50: < 10 nM
HOP-92
  GI50: < 10 nM
[8]
  inhibition in vivo at 30 mg/kg: 36.4%
CCRF-CEM
  GI50: < 10 nM
NCI-H460 [9]
  inhibition in vivo at 5 mg/kg: 2.15%
MDA-MB-231 [10]
  GI50: < 10 nM
4T1 [11]
  growth inhibition (GI): Active
HCT-8
  Activity: Active
EKVX
  GI50: < 10 nM
UACC-62
  GI50: < 10 nM
ACHN
  GI50: < 10 nM
HCT-116
  GI50: < 10 nM
A498
  GI50: < 10 nM
A2780 [12]
  Activity: Active
Mus musculus [13]
  Activity: Non-toxic
PC-3M
  Activity: Active
DU-145
  GI50: < 10 nM
[14]
  inhibition in vivo at 10 mg/kg: 47.4%
Mus musculus [15]
  Activity: 45.3%
MCF7
  inhibition in vivo at 30 mg/kg: 100%
786-0
  GI50: < 10 nM
NCI-H460 [16]
  inhibition in vivo at 10 mg/kg: 17.3%
NCI/ADR-RES
  GI50: < 10 nM
Mus musculus [17]
  Activity: Non-toxic
Mus musculus [18]
  Activity: Active
HCT-15
  GI50: < 10 nM
